In US20040038861A1, “Methods and compositions for normalizing lipid levels in mammalian tissues” (priority 2001, published 2004):
pEC50: −log10 of the molar value.

Tests used:
soleus muscle [1] = experiment: Individual free fatty acids by gas chromatography in isolated soleus muscle from normally fed rats; type: cell-based, rat; conditions: for Total free fatty acids / free fatty acid C14:0 as percentage of total resting fatty acid / free fatty acid C15:0 as percentage of total resting fatty acid / free fatty acid C16:0 as percentage of total resting fatty acid / free fatty acid C16:1 (n-7) as percentage of total resting fatty acid / free fatty acid C16:1 (n-9) as percentage of total resting fatty acid / free fatty acid C17:0 as percentage of total resting fatty acid / free fatty acid C18:0 as percentage of total resting fatty acid / free fatty acid C18:1 (n-7) as percentage of total resting fatty acid / free fatty acid C18:1 (n-9) as percentage of total resting fatty acid / free fatty acid C18:2 as percentage of total resting fatty acid / free fatty acid C18:3 as percentage of total resting fatty acid / free fatty acid C20:0 as percentage of total resting fatty acid / free fatty acid C20:4 as percentage of total resting fatty acid / free fatty acid C20:5 as percentage of total resting fatty acid / free fatty acid C22:4 as percentage of total resting fatty acid / free fatty acid C22:6 as percentage of total resting fatty acid: 1 hour; for Total free fatty acids / free fatty acid adrenic C22:4 / free fatty acid arachidic C20:0 / free fatty acid arachidonic C20:4 / free fatty acid cervonic C22:6 / free fatty acid linoleic C18:2 / free fatty acid linolenic C18:3 / free fatty acid margaric C17:0 / free fatty acid myristic C14:0 / free fatty acid oleic C18:1 / free fatty acid palmitic C16:0 / free fatty acid palmitoleic (n-7) C16:1 / free fatty acid palmitoleic (n-9) C16:1 / free fatty acid pentadecanoic C15:0 / free fatty acid stearic C18:0 / free fatty acid timnodonic C20:5 / free fatty acid vaccenic C18:1: GC; for Total free fatty acids: hormone concentrations 100 nM for all; for free fatty acid C14:0 as percentage of total resting fatty acid / free fatty acid C15:0 as percentage of total resting fatty acid / free fatty acid C16:0 as percentage of total resting fatty acid / free fatty acid C16:1 (n-7) as percentage of total resting fatty acid / free fatty acid C16:1 (n-9) as percentage of total resting fatty acid / free fatty acid C17:0 as percentage of total resting fatty acid / free fatty acid C18:0 as percentage of total resting fatty acid / free fatty acid C18:1 (n-7) as percentage of total resting fatty acid / free fatty acid C18:1 (n-9) as percentage of total resting fatty acid / free fatty acid C18:2 as percentage of total resting fatty acid / free fatty acid C18:3 as percentage of total resting fatty acid / free fatty acid C20:0 as percentage of total resting fatty acid / free fatty acid C20:4 as percentage of total resting fatty acid / free fatty acid C20:5 as percentage of total resting fatty acid / free fatty acid C22:4 as percentage of total resting fatty acid / free fatty acid C22:6 as percentage of total resting fatty acid / free fatty acid adrenic C22:4 / free fatty acid arachidic C20:0 / free fatty acid arachidonic C20:4 / free fatty acid cervonic C22:6 / free fatty acid linoleic C18:2 / free fatty acid linolenic C18:3 / free fatty acid margaric C17:0 / free fatty acid myristic C14:0 / free fatty acid oleic C18:1 / free fatty acid palmitic C16:0 / free fatty acid palmitoleic (n-7) C16:1 / free fatty acid palmitoleic (n-9) C16:1 / free fatty acid pentadecanoic C15:0 / free fatty acid stearic C18:0 / free fatty acid timnodonic C20:5 / free fatty acid vaccenic C18:1: normally fed rats; for free fatty acid adrenic C22:4 / free fatty acid arachidic C20:0 / free fatty acid arachidonic C20:4 / free fatty acid cervonic C22:6 / free fatty acid linoleic C18:2 / free fatty acid linolenic C18:3 / free fatty acid margaric C17:0 / free fatty acid myristic C14:0 / free fatty acid oleic C18:1 / free fatty acid palmitic C16:0 / free fatty acid palmitoleic (n-7) C16:1 / free fatty acid palmitoleic (n-9) C16:1 / free fatty acid pentadecanoic C15:0 / free fatty acid stearic C18:0 / free fatty acid timnodonic C20:5 / free fatty acid vaccenic C18:1: hormone 1 hour
Description: Animal models. Normallyfed rats. All protocols were approved by the University of Auckland Animal Ethics Committee. Male Wistar rats, (age=50 d) weighing 200-250 g, were housed in a constant 12 h/12 h-light/dark cycle and received standard rat-chow (Diet 86, NRM, Auckland) and water ad libitum. The standard diet contained 5% fat (w/w), which comprised mainly beef tallow. The triglyceride, total and free fatty acid contents of representative samples of this diet were analyzed, and are shown in Table 3. Rats were anaesthetized by intraperitoneal injection of sodium pentobarbital (45 mg/kg body weight) then sacrificed by cervical dislocation.
Soleus muscle tissue isolation and incuhation.Immersion and incubation media was Krebs-Henseleit buffer (KHB) containing 118.5 mM NaCl, 4.75 mM KCl, 1.18 mM MgSO4.7H2O and KH2PO4, 24.8 mM NaHCO3, 2.54 mM CaCl2 and 10 mM d-glucose. The medium was gassed continuously with 95% O2/5% CO2. […] Soleus muscles of both legs were excised keeping the tissue immersed in KHB; muscles were separated into two equal parts and transferred to the incubation flasks. At the completion of incubation the muscles were snap frozen in liquid nitrogen, and then trimmed of connective tissue and all visible fat. The muscle strips were stored at −80° C. until analysis.
Lipid extraction and chromatographic separation of fatty acids. Total lipids were extracted from muscle strips by a modified version of the method of Bligh and Dyer (Gorski et al., 1988, Mol & Cell Biochem 178:113-118; 1. Bligh et al., 1959, Can J Biochem Physiol 37: 911-917). Muscles were homogenised (Soniprep 150) in 0.4 ml of deionised water. Solvent volumes used herein were varied according to the water content of the muscle (ie muscle weight) as described (Bligh & Dyer, supra). 2 vols of methanol containing 0.005% butylated hydroxy toluene (BHT) and 1 vol chloroform were added to the muscle suspension. Homogenates were vortexed at maximum speed for 2 minutes and centrifuged at 2,500 g for 4 minutes. Supernatants were recovered and pellets re-extracted with 2 vol methanol, 1 vol chloroform and 0.8 vol 0.2 N HCl. Residues were vortexed for 2 min then centrifuged at 3,500 g for 3 min. After centrifugation the combined supernatants were diluted with 2v each of milli Q water and chloroform and the phases separated by centrifugation at 3,500 g for 4 minutes. The lower chloroform phase was recovered, neutralised by dropwise addition of 0.2 N methanolic NH4OH and evaporated down in a stream of N2. The samples were stored at −80° C. until required.
Aminopropyl phase (250 mg) was packed into 16 ml teflon columns with teflon frits placed at the top and bottom of the bonded phase. Columns were placed in a Vac Elut apparatus and washed twice with 2 ml portions of hexane (Prasad et al., 1988, J Chromato 428: 221-228; Kaluzny et al., 1985, J Lipid Res 26: 135-140). The dry lipid samples were taken up in two 0.150 ml portions of chloroform and applied to the column under atmospheric pressure. After adsorption the neutral lipids were eluted with 4 ml of chloroform-2-propanol (2:1, v/v) and the free fatty acids eluted with 4 ml of 2% acetic acid in diethyl ether. The solvent containing the free fatty acids was dried under a stream of N2.
Gas-liquid chromatographic analysis. Dry free fatty acid residues were processed for derivatisation of methyl esters by the boron trifluoride-methanol method (Prasad, supra). 1 ml of boron trifluoride in methanol (BF3) was added to each sample, the sample vials were heated at 70° C. for 5 minutes, shaken vigorously, and baked for a further 10 minutes. Once the samples reached room temperature 0.5 ml milli Q water was added, the sample vials shaken, 0.1 ml heptane was added and the sample shaken again. 0.05 ml of the top heptane layer was removed for GLC analysis. […]

soleus muscle [2] = experiment: Total glycogen content in isolated incubated soleus muscle; type: cell-based, rat; conditions: for total glycogen content: 10 nM peptide, 2 h; for pEC50: isolated rat soleus muscle
Description: Soleus muscle preparation. All experiments were performed according to protocols approved by the Institutional Animal Ethics Committee. 5-6 week-old male Wistar rats (160 g) were kept on a 12:12-h light/dark cycle, and fed and watered ad libitum. Animals were anaesthetised with 50 mg/kg Nembutal (pentobarbitone sodium), then sacrificed by cervical dislocation. Soleus muscles were dissected under oxygenated KHB (118 mM NaCl, 4.75 mM KCl, 1.2 mM MgSO4, 24.8 mM NaHCO3, 1.2 mM KH2PO4, 2.54 mM CaCl2, 10 mM glucose, pH 7.4) and teased into halves, then incubated as described below.
Total glycogen content was measured in muscle strips by lyophilization followed by hydrolysis of glycogen to D-glucose with amyloglucosidase (Sigma) 20 U/100 ml in 0.2 M sodium acetate/acetic acid buffer, pH 4.8, and expressed as μmol ‘glucosyl’ units/g dry muscle weight. Free glucose in supernatant solutions was measured with a glucose/lactate analyzer (YSI 2300STAT, Yellow Springs Corporation) using D-glucose oxidase immobilized enzyme chemistry.
Data analysis. One way ANOVA, Dunnett's Multiple Comparisons Test, and unpaired Student's t-tests were used to calculate the statistical significance of differences, as appropriate. Dose-response curves were fitted to a sigmoidal dose-response algorithm, as follows: Y=minimum+(maximum−minimum)/([…] log ^(EC50^−X), for 2-DOG-uptake; and by a four parameter logistic model, Y=minimum+(maximum−minimum)/(1+10 log ^(EC50^−X)Hill-Coefficient) for total glycogen and [^14C]glucose incorporation. Calculations were performed using Prism v2.0 (GraphPad Software, San Diego, Calif.) to derive values for half-maximal effective concentration (EC50). Displacement curves derived for competition of bound radioligand with cold ligand in transfected cells were calculated according to a one site competition fit using Prism v2.0.

[3] = absence of insulin, basal 90.8±3.7
[4] = insulin 23.7 nM, insulin alone 138±4.8

Substance | Total free fatty acids (soleus muscle [1]) | free fatty acid C14:0 as percentage of total resting fatty acid (soleus muscle [1]) | free fatty acid C15:0 as percentage of total resting fatty acid (soleus muscle [1]) | free fatty acid C16:0 as percentage of total resting fatty acid (soleus muscle [1]) | free fatty acid C16:1 (n-7) as percentage of total resting fatty acid (soleus muscle [1]) | free fatty acid C16:1 (n-9) as percentage of total resting fatty acid (soleus muscle [1]) | free fatty acid C17:0 as percentage of total resting fatty acid (soleus muscle [1]) | free fatty acid C18:0 as percentage of total resting fatty acid (soleus muscle [1]) | free fatty acid C18:1 (n-7) as percentage of total resting fatty acid (soleus muscle [1]) | free fatty acid C18:1 (n-9) as percentage of total resting fatty acid (soleus muscle [1]) | free fatty acid C18:2 as percentage of total resting fatty acid (soleus muscle [1]) | free fatty acid C18:3 as percentage of total resting fatty acid (soleus muscle [1]) | free fatty acid C20:0 as percentage of total resting fatty acid (soleus muscle [1]) | free fatty acid C20:4 as percentage of total resting fatty acid (soleus muscle [1]) | free fatty acid C20:5 as percentage of total resting fatty acid (soleus muscle [1]) | free fatty acid C22:4 as percentage of total resting fatty acid (soleus muscle [1]) | free fatty acid C22:6 as percentage of total resting fatty acid (soleus muscle [1]) | free fatty acid adrenic C22:4 (soleus muscle [1]) | free fatty acid arachidic C20:0 (soleus muscle [1]) | free fatty acid arachidonic C20:4 (soleus muscle [1]) | also measured
Rat amylin | 0.636 ± 0.05 nmol/g wwt | 3.4% | 15.4% | 2.6% | 15.8% | 7.2% | 10.7% | 2.9% | 1.3% | 1.6% | 1.1% | 3.7% | 4.5% | 1.0% | 1.4% | 9.1% | 3.3% | 0.008 ± 0.003 nmol/g wwt | 0.008 ± 0.002 nmol/g wwt | 0.016±0.002 nmol/g wwt | free fatty acid cervonic C22:6 (soleus muscle [1]): 0.03±0.004 nmol/g wwt; free fatty acid linoleic C18:2 (soleus muscle [1]): 0.058 ± 0.006 nmol/g wwt; free fatty acid linolenic C18:3 (soleus muscle [1]): 0.01 ± 0.002 nmol/g wwt; free fatty acid margaric C17:0 (soleus muscle [1]): 0.013 ± 0.0022 nmol/g wwt; free fatty acid myristic C14:0 (soleus muscle [1]): 0.026 ± 0.0028 nmol/g wwt; free fatty acid oleic C18:1 (soleus muscle [1]): 0.076 ± 0.0082 nmol/g wwt; free fatty acid palmitic C16:0 (soleus muscle [1]): 0.21 ± 0.0188 nmol/g wwt; free fatty acid palmitoleic (n-7) C16:1 (soleus muscle [1]): 0.015 ± 0.0025 nmol/g wwt; free fatty acid palmitoleic (n-9) C16:1 (soleus muscle [1]): 0.008±0.0013 nmol/g wwt; free fatty acid pentadecanoic C15:0 (soleus muscle [1]): 0.013 ± 0.002 nmol/g wwt; free fatty acid stearic C18:0 (soleus muscle [1]): 0.125 ± 0.0058 nmol/g wwt; free fatty acid timnodonic C20:5 (soleus muscle [1]): 0.005 ± 0.0007 nmol/g wwt; free fatty acid vaccenic C18:1 (soleus muscle [1]): 0.015 ± 0.0015 nmol/g wwt; free fatty acid arachidonic C20:4 (soleus muscle [1]; listed as Amylin): 0.016 ± 0.002 nmol/g wwt; free fatty acid cervonic C22:6 (soleus muscle [1]; listed as Amylin): 0.03 ± 0.004 nmol/g wwt; free fatty acid palmitoleic (n-9) C16:1 (soleus muscle [1]; listed as Amylin): 0.008 ± 0.0013 nmol/g wwt; total glycogen content (soleus muscle [2]; [3]): 65.6±9.1 μmol/g dry-wt muscle/h; total glycogen content (soleus muscle [2]; [4]): 86.7 μmol/g dry-wt muscle/h; pEC50 (soleus muscle [2]; absence of insulin): 8.10; pEC50 (soleus muscle [2]; human insulin 23.7 nM): 8.09
rat CGRP-1 | 0.691 ± 0.04 nmol/g wwt | 3.6% | 12.9% | 2.9% | 21.6% | 7.5% | 10.7% | 3.6% | 1.4% | 1.8% | 1.0% | 2.1% | 3.6% | 1.1% | 1.0% | 8.1% | 2.7% | 0.007 ± 0.002 nmol/g wwt | 0.007 ± 0.0008 nmol/g wwt | 0.018±0.002 nmol/g wwt | free fatty acid cervonic C22:6 (soleus muscle [1]): 0.022±0.002 nmol/g wwt; free fatty acid linoleic C18:2 (soleus muscle [1]): 0.057 ± 0.006 nmol/g wwt; free fatty acid linolenic C18:3 (soleus muscle [1]): 0.005 ± 0.0013 nmol/g wwt; free fatty acid margaric C17:0 (soleus muscle [1]): 0.015 ± 0.0015 nmol/g wwt; free fatty acid myristic C14:0 (soleus muscle [1]): 0.028 ± 0.001 nmol/g wwt; free fatty acid oleic C18:1 (soleus muscle [1]): 0.09 ± 0.0075 nmol/g wwt; free fatty acid palmitic C16:0 (soleus muscle [1]): 0.23 ± 0.01 nmol/g wwt; free fatty acid palmitoleic (n-7) C16:1 (soleus muscle [1]): 0.022 ± 0.002 nmol/g wwt; free fatty acid palmitoleic (n-9) C16:1 (soleus muscle [1]): 0.008±0.0006 nmol/g wwt; free fatty acid pentadecanoic C15:0 (soleus muscle [1]): 0.01 ± 001 nmol/g wwt; free fatty acid stearic C18:0 (soleus muscle [1]): 0.15 ± 0.01 nmol/g wwt; free fatty acid timnodonic C20:5 (soleus muscle [1]): 0.003 ± 0.0005 nmol/g wwt; free fatty acid vaccenic C18:1 (soleus muscle [1]): 0.017 ± 0.0015 nmol/g wwt; total glycogen content (soleus muscle [2]; [3]): 71.4±7.7 μmol/g dry-wt muscle/h; total glycogen content (soleus muscle [2]; [4]): 113±6.9 μmol/g dry-wt muscle/h; pEC50 (soleus muscle [2]; absence of insulin): 8.49; pEC50 (soleus muscle [2]; human insulin 23.7 nM): 8.37
